{"source": "paper PMC9241302", "about": "“Identification of 2-(4-N,N-Dimethylaminophenyl)-5-methyl-1-phenethyl-1H-benzimidazole targeting HIV-1 CA capsid protein and inhibiting HIV-1 replication in cellulo” (BMC Pharmacology & Toxicology, 2022)", "key": {"[1]": {"test": "Cytotoxicity in TZM-bl cells (MTT)", "type": "cell-based, human", "details": "human, TZM-bl cells; 48hs", "method": "(§1) TZM-bl cells, U87-CD4-CCR5, murine macrophages (J774.1), and THP-1 monocytes (ATCC®TIB-202™) were grown following ATCC recommendations. Cells were seeded in a 96-well plate (10^4 cells in 200 µL culture medium) and incubated at 37 °C in a 5% CO2 atmosphere for 48 h, to allow cell adhesion before drug testing. For stimulation (THP-1 monocytes), cells were incubated with 100 nM of phorbol 12-myristate 13-acetate (PMA) for 48 h. […] A vehicle for control (0.4% DMSO) and negative wells (cells in medium) was used in each test. […] After removing the medium, formazan crystals were dissolved in 180 µL of DMSO and 20µL of MTT buffer (0.1 M glycine, 0.1 M NaCl, 0.5 mM EDTA, pH 10.5), and the absorbance at 560 nm was measured. […] Tests were performed in triplicate, in two independent experiments."}, "TZM-bl cells": {"test_system": "TZM-bl cells", "test": "Cytotoxicity in TZM-bl cells (MTT)", "type": "cell-based, human", "details": "Homo sapiens, TZM-bl; Table 1, 696, 48hs", "method": "as §1"}, "[2]": {"test": "Cytotoxicity in U87-CD4-CCR5 cells (MTT)", "type": "cell-based", "details": "human", "method": "(§2) TZM-bl cells, U87-CD4-CCR5, murine macrophages (J774.1), and THP-1 monocytes (ATCC®TIB-202™) were grown following ATCC recommendations. Cells were seeded in a 96-well plate (10^4 cells in 200 µL culture medium) and incubated at 37 °C in a 5% CO2 atmosphere for 48 h, to allow cell adhesion before drug testing. For stimulation (THP-1 monocytes), cells were incubated with 100 nM of phorbol 12-myristate 13-acetate (PMA) for 48 h. PMA was then washed and cells were left for an additional 24 h, 48 h or11 days (only U87 cells) with growth media containing compound 696 at 10, 25, 50, and 100 µM. A vehicle for control (0.4% DMSO) and negative wells (cells in medium) was used in each test. Cell viability was then assessed by measuring the mitochondria-dependent reduction of MTT (3-(4,5-dimethylthiazol-2-yl)-2,5-diphenyltetrazolium bromide) to formazan. […] After removing the medium, formazan crystals were dissolved in 180 µL of DMSO and 20µL of MTT buffer (0.1 M glycine, 0.1 M NaCl, 0.5 mM EDTA, pH 10.5), and the absorbance at 560 nm was measured. […]\nCompounds were first dissolved in DMSO to reach a concentration of 20 mM. […] The supernatant was collected every 3–4 days and analyzed for virus production by an in-house p24 capture ELISA. IC50 was calculated using “Quest Graph™ IC50 Calculator” (AAT Bioquest, Inc., https://www.aatbio.com/tools/ic50-calculator). […]"}, "HIV-1 CA": {"molecular_target": "HIV-1 CA (Human immunodeficiency virus type 1 group M subtype B, UniProt P12493)", "test": "HIV-1 CA assembly inhibition assay (absorbance at 340 nm)", "type": "biochemical", "design": "the capsid protein (CA) of the Gag polyprotein; made in house; host or cells: Escherichia coli BL21(DE3) pLysS", "method": "The CA assembly assay was performed in a final volume of 70 µL in 384-well plates, with a final concentration of 5 mg/mL of purified recombinant HIV-1 CA in Phosphate/NaCl Buffer (NaH2PO4/Na2HPO4 50 mM, NaCl 100 mM, pH 7.4), as described for FIV CA [27, 31]. Absorbance was measured at 340 nm every 30 s in a multiplate reader VarioskanTM Flash Multimode Reader (Thermo Scientific, MA, US) at 37 °C for 30 min. The compounds were tested at a fixed initial dose of 25 or 50 µM (at 0.5% DMSO [v/v]) by adding 1 µL of the concentrated ligand to the well before starting the measurement. The controls were CA at 5 mg/mL in only 0.5% DMSO [v/v] and CA without DMSO. The criteria to select active compounds were the observation of at least 50% of assembly inhibition at these doses, based on the reduction of the OD value at 340 nm at the plateau value compared to the controls."}, "[3]": {"test": "Cytotoxicity in mammalian cells (MTT, all cell types)", "type": "cell-based", "details": "tested at 25, 50, and 100 µM", "method": "The cytotoxicity of the compounds was assayed in different types of cells (TZM-bl cells, U87-CD4-CCR5, murine macrophages (J774.1), and THP-1 monocytes) at 25, 50, and 100 µM (Fig. 2). […] Compound 314 has the most complete toxicology profile because was preclinically developed for Chagas disease infection, as an antiparasitic drug. […] It has lower oral toxicity than PF74. Was predicted as no mutagenic by the TEST software.\nas §2, with “A vehicle for control (0.4% DMSO) and negative wells (cells in medium) was used in each test.” left out"}, "[4]": {"test_system": "HIV-1 reverse transcription (pol viral DNA)", "test": "qPCR quantification of reverse transcribed viral DNA in U87-CD4-CCR5 cells", "type": "cell-based", "details": "10 µM, cells preincubated, DNA extracted 48 h post-infection", "protocol": "U87-CD4-CCR5 cells were plated in a 24-wells plate at 1.25 × 10^5 cells per well. […] Total DNA was extracted 48 h post-infection using the AllPrep DNA/RNA Mini Kit (Qiagen, Venlo, Netherlands). […] The following program was used in the LightCycler 480 Real-Time PCR System (Roche, Basel, Switzerland): pre-incubation: 95 °C for 3 min, pre-amplification: 2 cycles of 95 °C for 15 s and 49 °C for 15 s, amplification: 40 cycles of 95 °C for 10 s, 58 °C for 20 s, 72 °C for 30 s, melting curve stage: 95 °C for 5 s, 55 °C for 1 min and then 97 °C with acquisition every 10 °C, cooling stage: 40 °C for 10 s. Serial dilution of the 8E5 cell line which contains 1 copy of HIV-1 proviral DNA per cell was used as a standard curve for viral RT products [46]. […] Results were calculated as the number of copies of Pol per copy of β-actin. Statistical analysis was performed using an unpaired, two-tailed, Mann–Whitney test with GraphPad Prism 7.0 software. Tests were performed in quadruplicate, in two independent experiments."}}, "note": "Like-named read-outs stand apart in the source and are kept apart here.", "data": [{"molecule": "Cc1ccc2c(c1)nc(-c1ccc(N(C)C)cc1)n2CCc1ccccc1", "note": "[compound 696, 2-(4-N,N-dimethylaminophenyl)-5-methyl-1-phenethyl-1H-benzimidazole]", "values": [{"measurement": "EC50 at 48 h", "setting": "[1]", "value": "> 50", "unit": "µM"}, {"measurement": "EC50", "setting": "TZM-bl cells", "value": "> 25", "unit": "µM"}, {"measurement": "EC50 at 11 days", "setting": "[2]", "value": "> 50", "unit": "µM"}, {"measurement": "Effect in p24 multimerization in vitro", "setting": "HIV-1 CA", "value": "inhibited"}, {"measurement": "interference with the assembly of HIV-1 CA in vitro", "setting": "HIV-1 CA; compounds at 25 or 50 µM, CA 5 mg/mL, 30 min", "value": "interference with the assembly"}, {"measurement": "Effect in p24 multimerization in vitro", "setting": "HIV-1 CA; listed as C00002", "value": "inhibition"}, {"measurement": "EC50", "setting": "[3]", "value": "> 50", "unit": "µM"}, {"measurement": "inhibition of HIV-1 reverse transcription (pol viral DNA by qPCR)", "setting": "[4]", "value": "did not show any significant effect"}]}]}
